Laboratory results: PubChem BioAssay AID256 (DTP/NCI, 2004)
Values joined by “and” are separate entries in the source; they are usually repeats but may differ in a detail not shown here. Equal values may be shown once. Toxic doses and inconclusive results are not listed. Rule for the calls: active = survival T/C of 150% or more; inactive = T/C below 125% in these data.

System: CD2F1 mice, L1210 leukemia ip, survival T/C
Assay: NCI In Vivo Anticancer Drug Screen. Data for tumor model L1210 Leukemia (intraperitoneal) in CD2F1 (CDF1) mice
Conditions: higher = longer survival
Procedure, shortened: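 Ratio T/C, where T is the treated-group value and C the vehicle-dosed control value, from mice implanted with a transplantable tumor.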

[1] = endpoint: mean survival time, dose: 25.0 mg/kg/injection, schedule: Q01DX009 (ip), vehicle: saline with Tween-80
[2] = endpoint: mean survival time, dose: 50.0 mg/kg/injection, schedule: Q01DX009 (ip), vehicle: saline with Tween-80
[3] = endpoint: mean survival time, dose: 100.0 mg/kg/injection, schedule: Q01DX009 (ip), vehicle: saline with Tween-80
[4] = endpoint: mean survival time, dose: 100.0 mg/kg/injection, schedule: Q04DX003 (ip), vehicle: saline with Tween-80
[5] = endpoint: mean survival time, dose: 200.0 mg/kg/injection, schedule: Q04DX003 (ip), vehicle: saline with Tween-80
[6] = endpoint: mean survival time, dose: 400.0 mg/kg/injection, schedule: Q04DX003 (ip), vehicle: saline with Tween-80
[7] = endpoint: mean survival time, dose: 75.0 mg/kg/injection, schedule: Q01DX001 (ip), vehicle: saline
[8] = endpoint: mean survival time, dose: 150.0 mg/kg/injection, schedule: Q01DX001 (ip), vehicle: saline
[9] = endpoint: mean survival time, dose: 300.0 mg/kg/injection, schedule: Q01DX001 (ip), vehicle: saline
[10] = endpoint: mean survival time, dose: 200.0 mg/kg/injection, schedule: Q01DX009 (ip), vehicle: saline with Tween-80

Measured: T/C

C=CC(C)(C)n1cc(C2=C(O)C(=O)C(c3cn(C(C)(C)C=C)c4ccccc34)=C(O)C2=O)c2ccccc21
inactive: endpoint: mean survival time, dose: 2.5 mg/kg/injection, schedule: Q01DX009 (ip), vehicle: Klucel (hydroxypropylcellulose) (HPC) 97 % of control | endpoint: mean survival time, dose: 2.5 mg/kg/injection, schedule: Q01DX009 (ip), vehicle: carboxymethylcellulose (CMC) 100 % of control | endpoint: mean survival time, dose: 5.0 mg/kg/injection, schedule: Q01DX009 (ip), vehicle: Klucel (hydroxypropylcellulose) (HPC) 93 % of control | endpoint: mean survival time, dose: 5.0 mg/kg/injection, schedule: Q01DX009 (ip), vehicle: carboxymethylcellulose (CMC) 100 % of control | endpoint: mean survival time, dose: 9.0 mg/kg/injection, schedule: Q01DX009 (ip), vehicle: carboxymethylcellulose (CMC) 96 % of control | endpoint: mean survival time, dose: 10.0 mg/kg/injection, schedule: Q01DX009 (ip), vehicle: Klucel (hydroxypropylcellulose) (HPC) 91 % of control | endpoint: mean survival time, dose: 10.0 mg/kg/injection, schedule: Q01DX009 (ip), vehicle: carboxymethylcellulose (CMC) 98 % of control | endpoint: mean survival time, dose: 18.0 mg/kg/injection, schedule: Q01DX009 (ip), vehicle: carboxymethylcellulose (CMC) 98 % of control | endpoint: mean survival time, dose: 20.0 mg/kg/injection, schedule: Q01DX009 (ip), vehicle: Klucel (hydroxypropylcellulose) (HPC) 93 % of control | endpoint: mean survival time, dose: 20.0 mg/kg/injection, schedule: Q01DX009 (ip), vehicle: carboxymethylcellulose (CMC) 98 % of control | endpoint: mean survival time, dose: 26.0 mg/kg/injection, schedule: Q01DX009 (ip), vehicle: carboxymethylcellulose (CMC) 94 % of control | endpoint: mean survival time, dose: 40.0 mg/kg/injection, schedule: Q01DX009 (ip), vehicle: Klucel (hydroxypropylcellulose) (HPC) 93 % of control | endpoint: mean survival time, dose: 40.0 mg/kg/injection, schedule: Q01DX009 (ip), vehicle: carboxymethylcellulose (CMC) 93 % of control | endpoint: mean survival time, dose: 60.0 mg/kg/injection, schedule: Q01DX009 (ip), vehicle: carboxymethylcellulose (CMC) 100 % of control | endpoint: median survival time, dose: 5.0 mg/kg/injection, schedule: Q01DX009 (ip), vehicle: Klucel (hydroxypropylcellulose) (HPC) 101 % of control | endpoint: median survival time, dose: 10.0 mg/kg/injection, schedule: Q01DX009 (ip), vehicle: Klucel (hydroxypropylcellulose) (HPC) 100 % of control and 102 % of control | endpoint: median survival time, dose: 20.0 mg/kg/injection, schedule: Q01DX009 (ip), vehicle: Klucel (hydroxypropylcellulose) (HPC) 97 % of control and 100 % of control | endpoint: median survival time, dose: 40.0 mg/kg/injection, schedule: Q01DX009 (ip), vehicle: Klucel (hydroxypropylcellulose) (HPC) 115 % of control and 109 % of control

C=CCS(=O)(=O)Cc1cccc([N+](=O)[O-])c1
inactive: endpoint: mean survival time, dose: 100.0 mg/kg/injection, schedule: Q04DX002 (ip), vehicle: Klucel (hydroxypropylcellulose) (HPC) 103 % of control | endpoint: mean survival time, dose: 200.0 mg/kg/injection, schedule: Q04DX002 (ip), vehicle: Klucel (hydroxypropylcellulose) (HPC) 94 % of control | endpoint: mean survival time, dose: 400.0 mg/kg/injection, schedule: Q04DX002 (ip), vehicle: Klucel (hydroxypropylcellulose) (HPC) 90 % of control

CCn1c(=O)c2nc(Br)n(C3OCC(OC(C)=O)C(OC(C)=O)C3OC(C)=O)c2n(CC)c1=O (configuration not stated)
inactive: endpoint: mean survival time, dose: 12.5 mg/kg/injection, schedule: Q01DX005 (ip), vehicle: distilled water + Tween-80 104 % of control | endpoint: mean survival time, dose: 25.0 mg/kg/injection, schedule: Q01DX005 (ip), vehicle: distilled water + Tween-80 104 % of control | endpoint: mean survival time, dose: 50.0 mg/kg/injection, schedule: Q01DX005 (ip), vehicle: distilled water + Tween-80 100 % of control | endpoint: mean survival time, dose: 100.0 mg/kg/injection, schedule: Q01DX005 (ip), vehicle: distilled water + Tween-80 93 % of control | endpoint: mean survival time, dose: 200.0 mg/kg/injection, schedule: Q01DX005 (ip), vehicle: distilled water + Tween-80 88 % of control

CN(C)C(=O)c1ccc[n+](CC(=O)NCc2ccccc2)c1
inactive: endpoint: mean survival time, dose: 100.0 mg/kg/injection, schedule: Q04DX003 (ip), vehicle: saline 98 % of control | endpoint: mean survival time, dose: 200.0 mg/kg/injection, schedule: Q04DX003 (ip), vehicle: saline 98 % of control

O=C(c1ccc(-c2ccccc2)cc1)C(Br)C(Br)c1ccccc1 (configuration not stated)
inactive: endpoint: mean survival time, dose: 12.5 mg/kg/injection, schedule: Q01DX009 (ip), vehicle: water 95 % of control | endpoint: mean survival time, dose: 50.0 mg/kg/injection, schedule: Q01DX009 (ip), vehicle: water 90 % of control | endpoint: mean survival time, dose: 100.0 mg/kg/injection, schedule: Q01DX009 (ip), vehicle: water 90 % of control | endpoint: mean survival time, dose: 200.0 mg/kg/injection, schedule: Q01DX009 (ip), vehicle: water 102 % of control

CC1CCC2[S][Sn]3([NH]C2C1)[NH]C1CC(C)CCC1[S]3 (configuration not stated)
inactive: endpoint: mean survival time, dose: 100.0 mg/kg/injection, schedule: Q04DX002 (ip), vehicle: saline with Tween-80 106 % of control | endpoint: mean survival time, dose: 200.0 mg/kg/injection, schedule: Q04DX002 (ip), vehicle: saline with Tween-80 111 % of control

Cc1ccc(NC2=NCCS2)c(C)c1
inactive: endpoint: mean survival time, dose: 25.0 mg/kg/injection, schedule: Q01DX001 (ip), vehicle: saline with Tween-80 106 % of control | [1] 89 % of control and 95 % of control | endpoint: mean survival time, dose: 25.0 mg/kg/injection, schedule: Q04DX002 (ip), vehicle: saline with Tween-80 104 % of control and 106 % of control | endpoint: mean survival time, dose: 25.0 mg/kg/injection, schedule: Q04DX003 (ip), vehicle: saline with Tween-80 101 % of control | endpoint: mean survival time, dose: 50.0 mg/kg/injection, schedule: Q01DX001 (ip), vehicle: saline with Tween-80 106 % of control | [2] 97 % of control and 103 % of control | endpoint: mean survival time, dose: 50.0 mg/kg/injection, schedule: Q04DX002 (ip), vehicle: saline with Tween-80 95 % of control and 110 % of control | endpoint: mean survival time, dose: 50.0 mg/kg/injection, schedule: Q04DX003 (ip), vehicle: saline with Tween-80 98 % of control | endpoint: mean survival time, dose: 100.0 mg/kg/injection, schedule: Q01DX001 (ip), vehicle: saline with Tween-80 102 % of control | [3] 103 % of control | [4] 96 % of control

O=C1NC(=O)C(=O)N1
inactive: endpoint: mean survival time, dose: 100.0 mg/kg/injection, schedule: Q01DX009 (ip), vehicle: saline 94 % of control | endpoint: mean survival time, dose: 200.0 mg/kg/injection, schedule: Q01DX009 (ip), vehicle: saline 105 % of control | endpoint: mean survival time, dose: 400.0 mg/kg/injection, schedule: Q01DX009 (ip), vehicle: saline 108 % of control

CC1=C(C)C2(C)C(C)C2(C)C1C (configuration not stated)
inactive: [4] 90 % of control | [5] 110 % of control | [6] 98 % of control

Cc1cc(NC(=O)Nc2ccc(Cl)cc2)no1
inactive: endpoint: mean survival time, dose: 50.0 mg/kg/injection, schedule: Q01DX009 (ip), vehicle: saline sonified 96 % of control | endpoint: mean survival time, dose: 100.0 mg/kg/injection, schedule: Q01DX009 (ip), vehicle: saline sonified 96 % of control | endpoint: mean survival time, dose: 200.0 mg/kg/injection, schedule: Q01DX009 (ip), vehicle: saline sonified 96 % of control

C=CCN(CC=C)C1=CC(=O)C(=O)c2ccccc21
inactive: [7] 91 % of control | [8] 100 % of control | [9] 89 % of control

CCOC(=O)CNC(=O)Nc1ccccc1OCC
inactive: [2] 89 % of control | [3] 89 % of control | [10] 93 % of control

O=[N+]([O-])c1ccc(N2N=NC3C4CCC(C4)C32)cc1 (configuration not stated)
inactive: [4] 93 % of control | [5] 91 % of control | [6] 96 % of control

CC(C)(C)OC(=O)NC(CC(N)=O)C(=O)O (configuration not stated)
inactive: endpoint: mean survival time, dose: 100.0 mg/kg/injection, schedule: Q01DX001 (ip), vehicle: saline sonified 98 % of control | endpoint: mean survival time, dose: 200.0 mg/kg/injection, schedule: Q01DX001 (ip), vehicle: saline sonified 93 % of control | endpoint: mean survival time, dose: 400.0 mg/kg/injection, schedule: Q01DX001 (ip), vehicle: saline sonified 98 % of control

CCCCCCCCCCCCCC[n+]1ccc(C#N)cc1
inactive: endpoint: mean survival time, dose: 7.5 mg/kg/injection, schedule: Q01DX001 (ip), vehicle: saline 97 % of control | endpoint: mean survival time, dose: 7.5 mg/kg/injection, schedule: Q01DX009 (ip), vehicle: saline 100 % of control | endpoint: mean survival time, dose: 15.0 mg/kg/injection, schedule: Q01DX001 (ip), vehicle: saline 92 % of control | endpoint: mean survival time, dose: 15.0 mg/kg/injection, schedule: Q01DX009 (ip), vehicle: saline 103 % of control | endpoint: mean survival time, dose: 30.0 mg/kg/injection, schedule: Q01DX001 (ip), vehicle: saline 100 % of control | endpoint: mean survival time, dose: 30.0 mg/kg/injection, schedule: Q01DX009 (ip), vehicle: saline 107 % of control

CC(=O)Nc1ccccc1-c1ccccc1
inactive: [3] 96 % of control | [4] 92 % of control | [10] 104 % of control | [5] 95 % of control | endpoint: mean survival time, dose: 400.0 mg/kg/injection, schedule: Q01DX009 (ip), vehicle: saline with Tween-80 103 % of control | [6] 94 % of control

c1ccc2c3c([nH]c2c1)CN1CCNCC1C3 (configuration not stated)
inactive: endpoint: mean survival time, dose: 6.25 mg/kg/injection, schedule: Q01DX009 (ip), vehicle: saline with Tween-80 98 % of control | endpoint: mean survival time, dose: 12.5 mg/kg/injection, schedule: Q01DX009 (ip), vehicle: saline with Tween-80 100 % of control | [1] 100 % of control

OC(c1nc2ccccc2[nH]1)C(O)c1nc2ccccc2[nH]1 (configuration not stated)
inactive: [4] 101 % of control | [5] 102 % of control | [6] 96 % of control

CN(C)CCNCCN(C)C
inactive: [7] 100 % of control | [8] 100 % of control | [9] 102 % of control
